Consider 1 compound from PMC5513091, “A novel Alzheimer’s disease drug candidate targeting inflammation and fatty acid metabolism” (Alzheimer's Research & Therapy, 2017).

Each structure is given as a SMILES string.

One data set deals with primary cortical neurons. Description: Oxytosis. To be noted: Primary cortical neuron; read-out: Half-maximal effective concentration, Oxytosis. The format is cell-based. On the procedure: The various phenotypic screening assays were conducted as previously described. Briefly, HT-22, primary cortical neurons, or MC65 was plated and exposed to the different environmental stresses. Cells were treated with varying concentrations of CAD-31, and half-maximal effective concentration (EC50) was determined on the basis of cell viability.
• An assay that mimics the dramatic loss of neurotrophic support in the old brain is the trophic factor withdrawal assay. Primary embryonic day 18 cortical cells are plated at low density in serum-free medium. At low density, the cells die within 2 days; they can be rescued by combinations of neurotrophic growth factors, but not by one alone ([19] and unpublished data). […] BDNF is a molecule that is also involved in promoting memory and neurogenesis and is reduced in the brain with age and in AD, as well as in other neurological disorders. BDNF has long been considered a drug target for AD [23]. […] A reduction in GSH is a common denominator of old age and essentially all chronic central nervous system (CNS) diseases. J147 and CAD-31 both effectively reduce oxidative stress, with EC50 of 6 nM and 20 nM, respectively. • CAD-31 also prevents loss of energy metabolism that leads to neuron cell death in an in vitro ischemia model. […]

The next data set has as its target hERG (Homo sapiens, UniProt Q12809). Briefly: hERG assay.
The target of another data set is CYP 2D6 (Homo sapiens, UniProt P10635). Description: CYP inhibition. It counts as in vitro ADME.
Sequence of CYP 2D6 (P10635 whole entry): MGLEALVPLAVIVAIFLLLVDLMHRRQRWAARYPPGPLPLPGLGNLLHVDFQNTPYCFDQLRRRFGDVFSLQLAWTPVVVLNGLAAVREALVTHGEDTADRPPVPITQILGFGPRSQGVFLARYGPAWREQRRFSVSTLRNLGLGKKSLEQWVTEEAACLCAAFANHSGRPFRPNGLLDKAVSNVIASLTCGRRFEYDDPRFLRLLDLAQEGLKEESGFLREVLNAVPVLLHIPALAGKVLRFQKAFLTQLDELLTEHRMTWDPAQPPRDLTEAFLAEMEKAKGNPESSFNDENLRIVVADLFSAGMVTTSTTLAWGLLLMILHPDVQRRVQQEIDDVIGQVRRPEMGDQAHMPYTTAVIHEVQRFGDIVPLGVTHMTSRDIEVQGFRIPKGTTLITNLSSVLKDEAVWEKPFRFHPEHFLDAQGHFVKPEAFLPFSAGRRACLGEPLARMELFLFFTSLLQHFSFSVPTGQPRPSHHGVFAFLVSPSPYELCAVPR
For data set [1], the system named is panel of 60 brain ion channels, transporters, and receptors. Description: Lead Profile Screen. The format is binding. The text has this:
Before undertaking animal experiments, it is important to determine if a new drug candidate has a chance for further clinical development by determining its pharmacological properties of bioavailability and brain penetrance as well as predicted safety.

The subject of another data set is APPswe/PS1∆E9 mice. Briefly: Elevated plus maze. The format is in vivo. To be noted: AD mice fed 200 ppm in chow for 3 months from 10 months of age. On the procedure: The APPswe/PS1∆E9-transgenic mice were characterized previously. Line 85 mice carry two transgenes, the mouse/human chimeric APPswe, linked to Swedish familial AD and human PS1∆E9. At 10 months of age, female transgenic mice were fed a defined diet (Harlan Teklad; Envigo, Indianapolis, IN, USA) with and without CAD-31 (200 ppm, approximately 10 mg/kg/day). Treatment continued for 3 months, followed by behavior testing and tissue harvesting.
The elevated plus maze is used to analyze the anxiety response of mice. This test relies upon the tendency of mice to have a fear of heights and to navigate toward dark, enclosed spaces and remain there. Our maze is made of gray plastic and consists of four arms (two open without walls and two enclosed by 15.25-cm-high walls) that are 30 cm long and 5 cm wide in the shape of a plus sign. A video tracking system (EthoVision; Noldus Information Technology) is used to automatically collect behavioral data. Mice are habituated to the room 24 h before testing. Mice are also habituated to the maze for 2 minutes before testing by placing them in the center of the maze and blocking entry to the arms. Mice were tested in the maze for a 5-minute period. The anxiety of mice was measured by comparing the time spent in the open arms with time spent in the closed arms. Statistics were computed using GraphPad InStat software.

Sequence of hERG (Q12809 whole entry): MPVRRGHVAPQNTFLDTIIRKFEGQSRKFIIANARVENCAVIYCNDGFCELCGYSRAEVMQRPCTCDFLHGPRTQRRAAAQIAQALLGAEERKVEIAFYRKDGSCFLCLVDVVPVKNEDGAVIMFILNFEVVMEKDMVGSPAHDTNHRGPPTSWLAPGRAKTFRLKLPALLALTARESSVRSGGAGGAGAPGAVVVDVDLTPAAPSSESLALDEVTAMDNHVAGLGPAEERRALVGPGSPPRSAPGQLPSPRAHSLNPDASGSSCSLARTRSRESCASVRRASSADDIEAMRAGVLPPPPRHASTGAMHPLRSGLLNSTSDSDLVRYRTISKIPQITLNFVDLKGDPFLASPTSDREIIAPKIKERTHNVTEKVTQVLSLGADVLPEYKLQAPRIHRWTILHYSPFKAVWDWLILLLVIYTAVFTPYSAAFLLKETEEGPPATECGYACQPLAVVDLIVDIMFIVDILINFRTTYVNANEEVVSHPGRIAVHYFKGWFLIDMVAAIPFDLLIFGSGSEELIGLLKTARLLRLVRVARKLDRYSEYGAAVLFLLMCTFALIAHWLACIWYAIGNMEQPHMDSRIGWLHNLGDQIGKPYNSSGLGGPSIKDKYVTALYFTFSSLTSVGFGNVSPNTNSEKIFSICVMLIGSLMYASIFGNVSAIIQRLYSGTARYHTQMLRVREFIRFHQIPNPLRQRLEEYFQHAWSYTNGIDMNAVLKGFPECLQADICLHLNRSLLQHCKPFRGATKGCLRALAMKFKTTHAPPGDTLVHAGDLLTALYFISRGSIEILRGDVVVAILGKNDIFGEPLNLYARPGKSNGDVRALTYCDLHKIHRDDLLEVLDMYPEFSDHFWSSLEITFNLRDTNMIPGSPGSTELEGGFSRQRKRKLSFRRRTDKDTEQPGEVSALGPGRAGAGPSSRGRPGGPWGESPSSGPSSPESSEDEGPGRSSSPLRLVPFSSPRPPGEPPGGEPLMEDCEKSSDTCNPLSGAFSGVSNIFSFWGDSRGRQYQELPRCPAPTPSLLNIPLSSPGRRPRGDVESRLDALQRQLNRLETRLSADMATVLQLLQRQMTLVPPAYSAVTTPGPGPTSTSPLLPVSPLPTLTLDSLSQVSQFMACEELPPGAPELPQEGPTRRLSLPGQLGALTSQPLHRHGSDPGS

Regarding `Cc1ccc(N(/N=C/c2cccc(OC(F)(F)F)c2)C(=O)C(F)(F)F)c(C)c1` [CAD-31], the EC50 in the data set with primary cortical neurons was 0.02 µM; in data set [1] (all targets of the panel), more than 10 µM. For the same compound, the “activity in the hERG assay” value on hERG (10 μM) is “showed no sign of acute toxicity or activity”. The EC50 at 10 µM on hERG (human) and on CYP 2D6 was more than 10 µM throughout. The “interaction with proteins in the lead profile screen panel” value in data set [1] (10 μM, 60 brain ion channels, transporters, and receptors) is recorded as “did not interact”. In addition, the “time spent on the open arm (disinhibition phenotype)” value in the data set on APPswe/PS1∆E9 mice is on record as “completely rescued to age-matched WT levels”.
